The structures appear in SMILES notation. Structures can show the parent of a compound that is named as a salt.

A short description of the series: in vitro. The conditions noted are these: rat, gh3-tre-luc cells.

`Clc1nc(Cl)nc(Cl)n1` [2,4,6-Trichloro-s-triazine] gave a CC50 at 24 h (AC50 (uM) modified / 1000, Tox21_110001=Tox21_202449, viability, 1 nM T3 present, 24 h) greater than 90 µM.

Compound `Cn1ccc2cc3c(cc21)CCN3C(=O)Nc1cccnc1` [SB 206553 hydrochloride] showed a CC50 at 24 h (AC50 (uM) modified / 1000) greater than 50 µM.

Where the note is “AC50 (uM) modified / 1000”, `CC(C)OCCO` [2-Isopropoxyethanol] returned a CC50 at 24 h greater than 90 µM.

With `Cc1[nH]c(=O)n(C(C)(C)C)c(=O)c1Cl` [Terbacil], the CC50 at 24 h (AC50 (uM) modified / 1000) is greater than 90 µM.

`Nc1cccc([N+](=O)[O-])c1` [3-Nitroaniline] yielded a CC50 at 24 h (AC50 (uM) modified / 1000) greater than 90 µM.

Where the note is “AC50 (uM) modified / 1000”, `Cc1cccc(C(C)c2cnc[nH]2)c1C` (centres unmarked) [Medetomidine hydrochloride] had a cytotoxic concentration (CC50) at 24 h greater than 50 µM.

As to `COc1cc(NCCCC(C)N)c2ncccc2c1` (centres unmarked) [Quinocide], under “AC50 (uM) modified / 1000”, the CC50 at 24 h was 15.1 µM.

Compound `C[C@H]1C[C@@H]2[C@H]([C@@H](O)C[C@@]3(C)[C@H]2CC[C@]3(O)C(=O)COC(=O)CCC(=O)O)[C@@]2(C)C=CC(=O)C=C12` [Methylprednisolone succinate] showed a CC50 at 24 h (AC50 (uM) modified / 1000) greater than 50 µM.

Turning to `CCN(C(=O)c1cc(C)cc(OC[C@H](C)Nc2ccncc2)c1)C(C)C` [GW473178E methyl benzene sulphonic acid], the CC50 at 24 h (AC50 (uM) modified / 1000) is greater than 60 µM.

For the setting “AC50 (uM) modified / 1000”, `Cc1ccccc1C=O` [2-Tolualdehyde] showed a CC50 at 24 h greater than 90 µM.

`CC(C)c1ccc2oc3nc(N)c(C(=O)O)cc3c(=O)c2c1` [Amlenanox] displayed a CC50 at 24 h (AC50 (uM) modified / 1000) greater than 50 µM.

`Cc1cc(Cl)ccc1N=CN(C)C` [Chlordimeform hydrochloride]: the CC50 at 24 h (AC50 (uM) modified / 1000, Tox21_110001=Tox21_301412, viability, 1 nM T3 present, 24 h) is greater than 90 µM.

`CCCCCCCCCCCCCCCCCCOCC(O)CO` (centres unmarked) [3-(Octadecyloxy)-1,2-propanediol]: the CC50 at 24 h (AC50 (uM) modified / 1000) is greater than 50 µM.

`c1ccc(-c2ccc(-c3ccccc3)cc2)cc1` [1,1':4',1''-Terphenyl]: the CC50 at 24 h (AC50 (uM) modified / 1000) is greater than 20 µM.

`CCN1/C(=C/C=C/c2sc3ccccc3[n+]2CC)Sc2ccccc21` [3,3'-Diethylthiacarbocyanine iodide] had a CC50 at 24 h (AC50 (uM) modified / 1000) of 1.67 µM.

As to `CCN(CC)CCOc1ccc2c(c1)C(=O)c1cc(OCCN(CC)CC)ccc1-2` [Tilorone], the CC50 at 24 h (AC50 (uM) modified / 1000) was greater than 50 µM.

Compound `CCC#N` [Propionitrile] displayed a CC50 at 24 h (AC50 (uM) modified / 1000) greater than 100 µM.

Regarding `NC(=O)O` [Ammonium carbamate], for the setting “AC50 (uM) modified / 1000, Tox21_110001=Tox21_302509, viability, 1 nM T3 present, 24 h”, the CC50 at 24 h was greater than 90 µM.

Where the note is “AC50 (uM) modified / 1000”, `O=C(O)c1ccc(-n2nc(-c3ccccc3O)nc2-c2ccccc2O)cc1` [Deferasirox] registered a CC50 at 24 h of 41.8 µM.

Regarding `CC(C)(C)C(=O)C(Oc1ccc(Cl)cc1)n1ccnc1` (centres unmarked) [Climbazole], the CC50 at 24 h (AC50 (uM) modified / 1000) was greater than 50 µM.

In turn, `COc1c(Br)cc(Br)c(C)c1Br` [1,3,5-Tribromo-2-methoxy-4-methylbenzene] yielded a CC50 at 24 h (AC50 (uM) modified / 1000) greater than 90 µM.

Turning to `O=Cc1ccc(Cl)c([N+](=O)[O-])c1` [4-Chloro-3-nitrobenzaldehyde], the half-maximal cytotoxic concentration (CC50) at 24 h (AC50 (uM) modified / 1000) is greater than 90 µM.

With `CCCCCCC1CCCC(=O)O1` (centres unmarked) [Undecanoic delta-lactone], the CC50 at 24 h (AC50 (uM) modified / 1000) is greater than 90 µM.

Where the note is “AC50 (uM) modified / 1000”, `Cc1cc(Cl)c(C)cc1Cl` [1,4-Dichloro-2,5-dimethylbenzene] registered a CC50 at 24 h greater than 90 µM.

Take `Nc1nnc(S)[nH]1` [5-Amino-1,2-dihydro-3H-1,2,4-triazole-3-thione]: under “AC50 (uM) modified / 1000”, the CC50 at 24 h was greater than 90 µM.

In turn, `O=P(OCCCl)(OCCCl)OCCCl` [Tris(2-chloroethyl) phosphate] gave a 50% cytotoxic concentration (CC50) at 24 h (AC50 (uM) modified / 1000, Tox21_110001=Tox21_201254, viability, 1 nM T3 present, 24 h) greater than 90 µM.

Where the note is “AC50 (uM) modified / 1000”, `Brc1cc(Br)c(Oc2cc(Br)c(Br)cc2Br)cc1Br` [2,2',4,4',5,5'-Hexabromodiphenyl ether] came in with a CC50 at 24 h greater than 50 µM.

The compound `CCc1cnc(C(=O)O)c(C(=O)O)c1` [5-Ethyl-2,3-pyridinedicarboxylic acid] yielded a CC50 at 24 h (AC50 (uM) modified / 1000) greater than 100 µM.

Under “AC50 (uM) modified / 1000, Tox21_110001=Tox21_201627, viability, 1 nM T3 present, 24 h”, `Nc1ccc(Cl)cc1` [4-Chloroaniline hydrochloride] registered a CC50 at 24 h greater than 90 µM.

Compound `CCN1CCC[C@H]1CNC(=O)c1cc(S(N)(=O)=O)ccc1OC` [Levosulpiride] registered a CC50 at 24 h (AC50 (uM) modified / 1000) greater than 50 µM.

Turning to `Cc1cc(N)c(S(=O)(=O)O)cc1Cl` [2-Amino-5-chloro-4-methylbenzenesulfonic acid], the CC50 at 24 h (AC50 (uM) modified / 1000) was greater than 90 µM.

`Clc1ccc(Cn2c(CN3CCCC3)nc3ccccc32)cc1` [Clemizole hydrochloride]: the CC50 at 24 h (AC50 (uM) modified / 1000) was greater than 20 µM.

`O=C(O)CSCC(=O)NC1CCSC1=O` (centres unmarked) [Erdosteine] returned a CC50 at 24 h (AC50 (uM) modified / 1000) greater than 50 µM.

Where the note is “AC50 (uM) modified / 1000”, `CC(=O)Nc1c(I)c(C(=O)N[C@H]2C(O)O[C@H](CO)[C@@H](O)[C@@H]2O)c(I)c(N(C)C(C)=O)c1I` (some centres unmarked) [Metrizamide] had a CC50 at 24 h greater than 20 µM.

`CN[C@@H]1CCc2[nH]c3ccc(C(N)=O)cc3c2C1` [Frovatriptan Succinate monohydrate] came in with a CC50 at 24 h (AC50 (uM) modified / 1000) greater than 50 µM.

Compound `c1ccc(/N=N/c2ccccc2)cc1` [Azobenzene] showed a CC50 at 24 h (AC50 (uM) modified / 1000) greater than 90 µM.

The compound `C[C@@H](CO)NC(=O)[C@@H]1C=C2c3cccc4[nH]cc(c34)C[C@H]2N(C)C1` [Ergonovine] gave a CC50 at 24 h (AC50 (uM) modified / 1000, Tox21_110001=Tox21_112022, viability, 1 nM T3 present, 24 h) greater than 50 µM.

In turn, `O=C(O)C[C@H](NC(=O)OCc1ccccc1)C(=O)O` [N-[(Benzyloxy)carbonyl]-L-aspartic acid] came in with a CC50 at 24 h (AC50 (uM) modified / 1000) greater than 90 µM.

`CCC(C)N(C)C(=O)c1cc2ccccc2c(-c2ccccc2Cl)n1` (centres unmarked) [PK 11195] registered a 50% cytotoxic concentration (CC50) at 24 h (AC50 (uM) modified / 1000) of 48.6 µM.

Consider `COc1ccc(CCO)cc1` [4-Methoxybenzeneethanol], for which the CC50 at 24 h (AC50 (uM) modified / 1000) was greater than 90 µM.

Regarding `CNC(C)CCC=C(C)C` (centres unmarked) [Isometheptene hydrochloride], the CC50 at 24 h (AC50 (uM) modified / 1000) was greater than 50 µM.

As to `CC1(C)C(C=C(Cl)Cl)[C@@H]1C(=O)O[C@@H](C#N)c1ccc(F)c(Oc2ccccc2)c1` (some centres unmarked) [Cyfluthrin], under “AC50 (uM) modified / 1000”, the 50% cytotoxic concentration (CC50) at 24 h is greater than 90 µM.

As to `CSc1ccc2c(c1)N(CCC1CCCCN1C)c1ccccc1S2` (centres unmarked) [Thioridazine hydrochloride], for the setting “AC50 (uM) modified / 1000”, the CC50 at 24 h turned out to be 7.04 µM.

For the compound `CC(=O)O[C@H]1C[C@@H]2CC[C@@H]3[C@H](CC[C@@]4(C)[C@H]3C[C@H](N3CC[N+](C)(C)CC3)[C@@H]4OC(C)=O)[C@@]2(C)C[C@@H]1N1CC[N+](C)(C)CC1` [Pipecuronium bromide], the CC50 at 24 h (AC50 (uM) modified / 1000) is greater than 50 µM.

Where the note is “AC50 (uM) modified / 1000”, `O=P(O)(O)OCC(O)CO` (centres unmarked) [Dipotassium glycerophosphate] displayed a CC50 at 24 h greater than 50 µM.

For `CC(O)(CS(=O)(=O)c1ccc(F)cc1)C(=O)Nc1ccc(C#N)c(C(F)(F)F)c1` (centres unmarked) [Bicalutamide], the CC50 at 24 h (AC50 (uM) modified / 1000) was greater than 50 µM.

In the case of `O=C(O)CF` [Sodium fluoroacetate], for the setting “AC50 (uM) modified / 1000”, the CC50 at 24 h was greater than 90 µM.

Where the note is “AC50 (uM) modified / 1000”, `N#CCc1ccccc1[N+](=O)[O-]` [(2-Nitrophenyl)acetonitrile] registered a CC50 at 24 h greater than 90 µM.

Turning to `CCCc1nc2c(C)cc(-c3nc4ccccc4n3C)cc2n1Cc1ccc(-c2ccccc2C(=O)O)cc1` [Telmisartan], the CC50 at 24 h (AC50 (uM) modified / 1000) is greater than 50 µM.

`CCCCC(CC)C(=O)OCCOCCOCCOC(=O)C(CC)CCCC` (centres unmarked) [Triethylene glycol bis(2-ethylhexanoate)] displayed a CC50 at 24 h (AC50 (uM) modified / 1000) greater than 90 µM.

Where the note is “AC50 (uM) modified / 1000”, `Cc1ccccc1S` [2-Methylbenzenethiol] displayed a CC50 at 24 h greater than 70 µM.

Compound `C[Si](NC1CCCCC1)(NC1CCCCC1)NC1CCCCC1` [N,N',N''-Tricyclohexyl-1-methylsilanetriamine] displayed a CC50 at 24 h (AC50 (uM) modified / 1000) greater than 90 µM.

With `Cc1c(O)c(=O)ccn1C` [Deferiprone], for the setting “AC50 (uM) modified / 1000”, the CC50 at 24 h was greater than 50 µM.

`Cc1ccccc1Br` [2-Bromotoluene] showed a CC50 at 24 h (AC50 (uM) modified / 1000) greater than 90 µM.

In turn, `Cc1ccc(C(C)NC(=O)[C@@H](NC(=O)OC(C)C)C(C)C)cc1` (some centres unmarked) [Iprovalicarb] showed a CC50 at 24 h (AC50 (uM) modified / 1000) greater than 90 µM.

Turning to `C=CCOC(=O)CC(C)C` [Allyl isovalerate], the CC50 at 24 h (AC50 (uM) modified / 1000) is greater than 90 µM.
